Some results are limits rather than exact numbers.

The test system of experiment [1] is primary T cells co-cultured with CHO-PD-L1 cells. The conditions noted are these: 2 μM NECA. As to the method: In vitro the CHO-PD-L1 co-culture assay, T cells were treated in the presence of 20 CHO-PD-L1 cells with PD-1 antibody, and using 5′-N-ethylcarboxamide adenosine (NECA), an adenosine-mimicking reagent, to activate adenosine signaling.
Day 0, plate 10,000 CHO PDL1+ cells in Plate 96 Tissue Culture Flat Bottom plate in 100 ul of CHO Media without antibiotics. On day 1, T Cells were thawed and resuspended in T cell media at 1×10^6 cells/ml. Media was removed from the CHO PDL1+ cells plates and 130 ul of T cell media was added. T cell media at 198 ul was added onto the compound plates at 2 ul, or −1:100 dilution and then re-suspended. 20 ul of compounds from the compound plates were added onto the CHO cell plates at a final dilution of compounds at 1:1000. 50 ul of T cells (50,000 cells) were added onto the plates with CHO cells to make a total of 200 ul volume and incubation was carried out at 37° C. for 72 hrs. After 3 days in culture, the supernatant was collected for an hIFNg and hIL2 cytokine assay run using ProCartaplex 2 plex kits (Life Technologies Cat #PPX-02) for hIFNg and hIL2 (Manufacturer's Protocol). The cytokine assay using ProCartaplex kits are run on a Flex Map 3D Luminex multiplexing platform.

The subject of experiment [2] is CT-26 murine colon carcinoma hosted in NSG mice. Nature of the experiment: In vivo efficacy study, CT-26 NSG xenograft model. Also noted: species or system mouse. The conditions noted are these: 10 mg/kg BID, CT-26 in NSG mice lacking T and NK cells.
The subject of the next experiment is B16 melanoma. Put plainly: In vivo efficacy study, B16 syngeneic melanoma model. Also noted: species or system mouse. The conditions noted are these: Compound 9 10 mg/kg BID combined with anti-PD-L1.
The target in a further experiment is Adenosine A2A Receptor (Homo sapiens (Human), UniProt P29274). Put plainly: A2A Tag-lite HTRF Assay. Type of experiment: binding. To be noted: Tag-lite A2A labeled cells, fluorescent ligand 12.5 nM; read-out: A2A_Ki.
Adenosine A2A Receptor, sequence (P29274 whole entry): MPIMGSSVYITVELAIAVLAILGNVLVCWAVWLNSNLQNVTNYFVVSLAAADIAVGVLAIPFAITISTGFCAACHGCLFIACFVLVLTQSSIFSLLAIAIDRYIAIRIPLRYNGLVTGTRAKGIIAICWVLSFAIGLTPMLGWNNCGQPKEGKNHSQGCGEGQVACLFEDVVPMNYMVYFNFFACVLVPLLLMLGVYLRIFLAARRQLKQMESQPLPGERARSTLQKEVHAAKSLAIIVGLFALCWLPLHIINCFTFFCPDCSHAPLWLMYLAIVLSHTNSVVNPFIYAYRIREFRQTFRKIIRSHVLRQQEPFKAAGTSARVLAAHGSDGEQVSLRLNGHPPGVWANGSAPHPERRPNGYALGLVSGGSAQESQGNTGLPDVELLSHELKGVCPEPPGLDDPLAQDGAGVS
The test system of experiment [3] is PBMC from healthy donors stimulated by CD3 antibody. Nature of the experiment: In vitro Mixed Lineage Reaction assay (MLR). Type of experiment: cell-based. As to the method:
On day 0, 10,000 PBMCs from a healthy donor was co-cultured with 10,000 γ-radiated PBMCs from another healthy donor. […] Cells were incubated at 37° C. for 4 days. IFN-γ in the supernatant of each well was measured by a HTRF kit (Cisbio, 62[…]) and the fluorescent signal was detected on a Pherastar FS plate reader (BMG Labtech) on day 4.

Method for Adenosine A2A Receptor: Test compounds were first serially diluted in DMSO and 100 nl added to the plate wells before the addition of other reaction components. The final concentration of DMSO was 1%. Tag-lite® Adenosine A2A labeled cells (CisBio C1TT1A2A) were diluted 1:5 into Tag-lite buffer (CisBio LABMED) and spun 1200 g for 5 mins.

Take `Cn1nc(-c2c(-c3cccc(C#N)c3)nc(N)c3nc(Cc4ccccn4)nn23)ccc1=O` [Compound 9, 3-(8-Amino-5-(1-methyl-6-oxo-1,6-dihydropyridazin-3-yl)-2-(pyridin-2-ylmethyl)-[1,2,4]triazolo[1,5-a]pyrazin-6-yl)benzonitrile]: the “effect of combination with pembrolizumab” value in experiment [1] (FIG. 1A) is reported as “synergistic effect”. Moreover, in experiment [1] (FIG. 1B), the “effect of combination with Antibody X” value is “synergistic effect”. For the same molecule, the “effect of combination with Compound Y” value in experiment [1] (FIG. 1C) is “synergistic effect”. The single agent efficacy result in experiment [2] was “no single agent efficacy”. Moreover, the tumor growth inhibition in the experiment with B16 melanoma was 54%. Also, at Adenosine A2A Receptor, the Ki was below 10 nM. Further, the “effect of combination with atezolizumab” value in experiment [3] (PBMC stimulated with CD3 antibody, FIGS. 2A-2D) was “synergistic effect”. Besides, in experiment [3] (combined with anti-PD-L1 antibody atezolizumab, 1 μM NECA, CD3 antibody, 4 days), the IFNγ production entry is “increase IFNγ production significantly”.

Source of the values: patent publication US20250041310A1, “Combination Therapy Comprising A2A/A2B and PD-1/PD-L1 Inhibitors” (Incyte Corporation, priority 2020, published 2025).
